Article PMC6687188, “Novel lactate dehydrogenase inhibitors with in vivo efficacy against Cryptosporidium parvum” (PLoS Pathogens, 2019)
Residues, ends and D or L forms follow the SMILES beside them. *: point of attachment. Cbz = O=C(OCc1ccccc1)*; CH2Cl = ClC*

Each compound was assayed against recombinant CpLDH protein (Cryptosporidium parvum, UniProt Q9GT92, F198L/K295E/R251K).

Row | SMILES | MEAN CpLDH INHIBITION (%)
1 | COC1=C(N)C(=O)c2nc(C)ccc2C1=O [NSC132493] | -117.70
2 | CC[C@](C)(O)C(=O)O[C@H]1C(=O)O[C@@H]2C[C@H]3C(C)=CC(=O)[C@@H](O)[C@]3(C)[C@H]3[C@@]4(O)OC[C@]32[C@@H]1[C@@H](C)[C@H]4O [NSC132791] | -161.16
3 | CC1(C)N=C(N)N=C(N)N1c1ccc(OCCCOc2ccccc2)c(Cl)c1.CCS(=O)(=O)O [NSC133071] | -57.79
4 | Br.COC1CN(C)C(=Nc2cccc3ccccc23)S1 (centres unmarked) [NSC135996] | -24.95
5 | CC1=CC23C(COC(=O)C24CO4)C(C(=O)O)=CC3C1C.NCc1ccccc1 (centres unmarked) [NSC136037] | -0.26
6 | CC[C@@]1(O)C[C@H](O[C@H]2C[C@H](N(C)C)[C@H](O)[C@H](C)O2)c2c(O)c3c(c(O)c2[C@H]1O[C@H]1C[C@H](N(C)C)[C@H](O)[C@H](C)O1)C(=O)c1cccc(O)c1C3=O [NSC136044] | -159.43
7 | CCCC(=O)OCC1OC(n2ccc(N)nc2=O)C(OC(=O)CCC)C1OC(=O)CCC (centres unmarked) [NSC138429] | -38.75
8 | CCS(=O)(=O)O.CN(C)C(=O)c1cccc(COc2ccc(N3C(N)=NC(N)=NC3(C)C)cc2Cl)c1 [NSC139105] | -28.54
9 | Cc1cccc(NC(=O)/C=C/c2ccc([N+](=O)[O-])cc2)c1 [NSC139109] | -11.32
10 | CN1c2c(nc(N)[nH]c2=O)NCC1CCNc1ccc(C(=O)N[C@@H](CCC(=O)[O-])C(=O)[O-])cc1.[Na+].[Na+] (some centres unmarked) [NSC139490] | -2.06
11 | CC(C)=CCC(OC(=O)C=C(C)C)C1=CC(=O)c2c(O)ccc(O)c2C1=O (centres unmarked) [NSC140377] | -8.72
12 | O=S(=O)(c1cccc(N=C=S)c1)c1cccc(N=C=S)c1 [NSC140911] | -0.44
13 | Cl.NC(=O)c1cn(C2OC(CO)C(O)C2O)c2ncnc(N)c12 (centres unmarked) [NSC143648] | -33.40
14 | C=C1C(=O)OCC2C(C(=O)O)=CC3C(C)C(C)=CC123 (centres unmarked) [NSC145150] | -64.31
15 | CC(C)(C)CC(C)(C)NCC(O)COc1ccc(C(C)(C)c2ccc(OCC(O)CNC(C)(C)CC(C)(C)C)cc2)cc1.Cl (centres unmarked) [NSC145366] | -111.71
16 | O=C1NC(c2cccc3ccccc23)Nc2ccccc21 (centres unmarked) [NSC145669] | 0.07
17 | O=c1cnn(C2OC(CO)C(O)C2O)c(=S)[nH]1 (centres unmarked) [NSC146268] | -43.94
18 | COc1cc2c[n+](C)c3c4cc5c(cc4ccc3c2cc1OC)OCO5.[Cl-] [NSC146397] | -1.75
19 | COc1ccc(C[C@@H]2NC[C@@H](O)[C@@H]2OC(C)=O)cc1.Cl [NSC147340] | -13.68
20 | COC(=O)Nc1nc2ccc(Br)cc2[nH]1 [NSC154754] | -36.36
21 | COc1cc2cc3c4cc(OC)c(OC)cc4cc[n+]3c(C)c2cc1OC.O=C([O-])CS(=O)(=O)O [NSC154890] | -11.41
22 | N#CC1CC(c2ccccc2)Nc2cc(Cl)ccc2N1 (centres unmarked) [NSC155595] | -11.00
23 | COC(=O)[C@@H]1[C@H](O)[C@H](C)[C@H](O)[C@H](C)/C=C\C=C(/C)C(=O)Nc2c(C)c(OC(C)=O)c3c(c2O)C(=O)C(C)=C2OCOC(=C23)/C(C)=C/[C@@](C)(O)[C@H](O)[C@@H](C)[C@H]1OC(C)=O [NSC156215] | -35.58

Row | SMILES | MEAN CpLDH INHIBITION (%)
24 | CC(=O)OCc1cc(=O)n(C)c2c3c4c(cc12)c(C)cc(=O)n4CO3 [NSC157004] | -1.50
25 | CCN(CC)CCCC(C)Nc1ccnc(/C=C/c2ccc(Cl)cc2)c1 (centres unmarked) [NSC157389] | -3.33
26 | Cc1ccc([S+](c2ccc(C)cc2)c2ccc(C)cc2)cc1 [NSC157930] | -72.47
27 | CCOC(=O)/C=C/c1c(C)[nH]c(=O)[nH]c1=O [NSC159935] | -51.31
28 | Cc1c2cnccc2c(C)c2c1c1ccccc1n2CCOC(=O)c1ccccc1 [NSC163443] | -14.23
29 | CC(=O)[O][Sn]([CH2]c1ccccc1)([CH2]c1ccccc1)[CH2]c1ccccc1 [NSC164909] | -58.07
30 | CCC[CH2][Sn]([CH2]CCC)([CH2]CCC)[O]c1cc(Cl)c(Cl)cc1Cl [NSC164914] | -26.61
31 | COC(=O)[C@@]12OC[C@]34[C@H]([C@@H](O)[C@@H]1O)[C@@]1(C)CC(=O)C(O)=C(C)[C@@H]1C[C@H]3OC(=O)[C@H](OC(=O)/C=C(\C)C(C)C)[C@@H]24 [NSC165563] | -22.46
32 | CCSC(=O)N1c2ccc(OC)cc2C=CC1C#N (centres unmarked) [NSC165897] | -41.74
33 | CN1CCN(CCNc2ccc(CO)c3sc4ccccc4c(=O)c23)CC1 [NSC166381] | -6.81
34 | CSc1ccc(NC(=O)CCl)cc1 [NSC166464] | -7.16
35 | CCOC(=O)C(CC(C)C)NC(=O)C(Cc1ccc(N(CCCl)CCCl)cc1)NC(C)=O (centres unmarked) [NSC167780] | -51.52
36 | CC(=O)OCCN1c2ccccc2Sc2cnccc21 [NSC168221] | -24.94
37 | Cc1cc2nc(C=C(C(F)(F)F)C(F)(F)F)oc2cc1C [NSC168415] | -49.77
38 | CCC[CH2][Pb]([Cl])([CH2]CCC)[CH2]CCC [NSC168597] | -54.94
39 | CNC(=S)N/N=C/c1ccc([N+](=O)[O-])s1 [NSC169543] | -46.26
40 | COC(=O)C1(C)CCCC2(C)c3cc(OC)ccc3C(=O)C(Br)C12 (centres unmarked) [NSC169600] | -28.27
41 | OCCNCCN1CCN(CCCN2c3ccccc3Sc3ccc(C(F)(F)F)cc32)CC1 [NSC169676] | -69.84
42 | CC(C)C[C@H]1C(=O)N2CCC[C@H]2[C@]2(O)O[C@](NC(=O)[C@@H]3C=C4c5cccc6[nH]c(Br)c(c56)C[C@H]4N(C)C3)(C(C)C)C(=O)N12.CS(=O)(=O)O [NSC169774] | -107.83
43 | C[C@H](CN1CC(=O)NC(=O)C1)N1CC(=O)NC(=O)C1 [NSC169779] | -13.00
44 | COC(=O)[C@@]12OC[C@]34[C@H]([C@@H](O)[C@@H]1O)[C@@]1(C)CC(=O)C(O)=C(C)[C@@H]1C[C@H]3OC(=O)[C@H](OC(=O)C=C(C)C)[C@@H]24 [NSC172924] | -39.50
45 | CC(=O)[O][Pb]([O]C(C)=O)([c]1ccccc1)[c]1ccccc1 [NSC173046] | -141.42
46 | CC(C)CC(NC(=O)OCc1ccccc1)C(=O)NC(Cc1ccccc1)C(=O)CCl (stereo not drawn) [NSC173904] (Cbz-Leu-Phe-CH2Cl; configuration not given here) | -56.33

Row | SMILES | MEAN CpLDH INHIBITION (%)
47 | CC(=O)NC(CC(C)C)C(=O)NC(Cc1ccccc1)C(=O)CCl (stereo not drawn) [NSC173905] (Ac-Leu-Phe-CH2Cl; configuration not given here) | -39.37
48 | CN(Cc1cnc2nc(N)nc(N)c2n1)c1ccc(C(=O)N[C@@H](CCC(=O)O)C(=O)O)c2ccccc12 [NSC174121] | -134.26
49 | [Cl][Hg][c]1ccc2ccccc2c1 [NSC174163] | -16.59
50 | CC(=O)[O][Hg][c]1c(C)c(C)c(C)c(C)c1C [NSC174176] | -60.94
51 | CCCC(=O)[O-].[Na+] [NSC174280] | -5.75
52 | N=N/C(=C\c1c(O)[nH]c2ccccc12)c1ccccc1 [NSC175274] | -25.99
53 | Cc1ccc(C2NC(=O)c3ccccc3N2)s1 (centres unmarked) [NSC175634] | -31.59
54 | O=C1NC(c2cccc3ccccc23)Nc2ccc(Cl)cc21 (centres unmarked) [NSC175636] | -17.73
55 | N[C@H](C(=O)O)[C@H]1ON=C(Cl)[C@H]1O [NSC176324] | -9.23
56 | C(=C/c1nc2ccccc2o1)/c1ccc2c(c1)OCO2 [NSC176655] | -23.23
57 | NC(N)=NCCCS(=O)(=O)Nc1ccc(Nc2c3ccccc3nc3cc([N+](=O)[O-])ccc23)cc1 [NSC177365] | -212.36
58 | COc1ccc(O)c2c(=O)c3c(OC)cc4c(c3oc12)[C@@H]1C=CO[C@@H]1O4 [NSC178249] | -31.06
59 | CCC[CH2][Sn]1([CH2]CCC)[S]CC[N]1S(=O)(=O)c1ccc(C)cc1 [NSC183359] | -29.84
60 | C[C@H]1O[C@@H](c2ccc3c(c2O)C(=O)C2=C(C3=O)[C@@]3(O)C(=O)C[C@](C)(O)C[C@@]3(O)C=C2)C[C@@H](O)[C@@H]1O [NSC184398] | -31.06
61 | C[n+]1cc2cc(O)c(O)cc2c2ccc3cc(O)c(O)cc3c21.Cl.[Cl-].c1ccncc1 [NSC184403] | -44.28
62 | NC(=S)N/N=C/c1ccc(OC(=O)COc2ccccc2Cl)cn1 [NSC185056] | -5.23
63 | Oc1ccc(/C=N/NC(=S)Nc2cccnc2)nc1 [NSC185065] | -8.17
64 | Cc1cc(C)c(NC(=O)/C=C/c2ccccc2)c(C)c1 [NSC191384] | -34.30
65 | Cc1ccc(NC(=O)/C=C/c2ccccc2)c(C)c1 [NSC191389] | -64.07
66 | Cc1c(Cl)cccc1NC(=O)/C=C/c1ccccc1 [NSC191392] | -18.93
67 | Cc1cccc(Cl)c1NC(=O)/C=C/c1ccccc1 [NSC191393] | -10.83
68 | C[CH2][Ge]1([CH2]C)[CH2]CC2(CCN(CCCN(C)C)C2)C[CH2]1 [NSC192965] | -81.94
